These results are taken from US8802704B2, “Oxadiazole derivatives” (Merck Serono SA, priority 2009, dated 2014).

Data set [1] concerns the target T1, S1P1 (Homo sapiens, UniProt P21453). The data set can be described thus: Receptor binding assay, [33P]sphingosine 1-phosphate competition (SPA), S1P1.
Target sequence in this assay (P21453 whole entry, species assumed): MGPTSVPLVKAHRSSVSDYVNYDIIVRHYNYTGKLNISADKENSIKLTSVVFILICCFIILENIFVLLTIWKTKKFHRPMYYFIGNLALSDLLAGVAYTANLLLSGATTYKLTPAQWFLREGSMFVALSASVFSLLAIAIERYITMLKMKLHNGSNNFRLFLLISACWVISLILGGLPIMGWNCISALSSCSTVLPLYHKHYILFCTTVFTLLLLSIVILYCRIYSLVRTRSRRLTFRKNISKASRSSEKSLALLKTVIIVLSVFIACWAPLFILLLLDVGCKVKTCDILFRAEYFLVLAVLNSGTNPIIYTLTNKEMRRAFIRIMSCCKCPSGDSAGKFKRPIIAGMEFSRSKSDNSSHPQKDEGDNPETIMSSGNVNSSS
Another data set addresses S1P3 (Homo sapiens, UniProt Q99500). The data set can be described thus: Receptor binding assay, [33P]sphingosine 1-phosphate competition (SPA), S1P3.
For data set [2], the target named is T1, S1P1. The data set can be described thus: S1P1 internalization assay in S1P1-U2OS cells (cell imaging). It counts as cell-based. The note with it: U2OS cells expressing S1P1-EGFP, 1 hour. In short, it runs like this:
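U2OS cells stably expressing human S1P1-EGFP, serum-starved 2 h in medium with 0.1% fatty-acid-free BSA, then treated with compound for 1 h at 37° C. After paraformaldehyde fixation and Hoechst staining, internalization imaged as S1P1-EGFP spot count per nucleus.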
Target sequence in this assay (P21453 whole entry): as the sequence (P21453 whole entry, species assumed) above

In the next data set the test system is lymphocytes. Briefly: Model of S1P agonists-induced lymphopenia in mice. Type of data set: in vivo. To be noted: oral route. On the procedure: (§1) Female C57BL/6 mice (Elevage Janvier) (8 week old) receive S1P agonists by oral route. Blood is sampled in heparinized (100 IU/kg, ip) mice by intracardiac or retroorbital puncture under isoflurane anesthesia 2 to 120 hrs after drug treatment. The white blood cells (lymphocytes and neutrophils) are counted using a Beckman/Coulter counter. The quality of blood sampling is assessed by counting erythocytes and platelets.

Data set [3] in a line: Pharmacokinetics (PK parameters from lymphopenia, mouse). To be noted: PK-PD (30 mpk). It counts as in vivo. How it is done: as §1
The pharmacoinetic properties of compound of example 70, N-(2-fluoro-4-{5-[2′-methyl-2-(trifluoromethyl)biphenyl-4-yl]-1,2,4-oxadiazol-3-yl}benzyl)-N-methylglycine, are the following: […]

Where [4] appears, read: female, C57BL/6, plasma, po, 30 mg/kg.

SMILES strings stand for the structures. Like-named read-outs stand apart in the source and are kept apart here.

Sequence of S1P3 (Q99500 whole entry, species assumed): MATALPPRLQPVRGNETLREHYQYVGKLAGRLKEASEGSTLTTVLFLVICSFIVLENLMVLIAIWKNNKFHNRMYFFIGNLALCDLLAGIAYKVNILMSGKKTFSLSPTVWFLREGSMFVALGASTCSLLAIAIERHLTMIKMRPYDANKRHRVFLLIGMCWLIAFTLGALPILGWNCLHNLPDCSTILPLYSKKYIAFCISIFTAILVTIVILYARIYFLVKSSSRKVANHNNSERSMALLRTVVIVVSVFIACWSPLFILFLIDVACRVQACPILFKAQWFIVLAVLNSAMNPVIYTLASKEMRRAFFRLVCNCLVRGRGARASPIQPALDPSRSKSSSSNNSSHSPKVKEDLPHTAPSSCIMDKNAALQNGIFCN

Take `Cc1ccccc1-c1ccc(-c2nc(-c3ccc(CN(C)CC(=O)O)c(F)c3)no2)cc1C(F)(F)F` [Example 70, N-(2-fluoro-4-{5-[2′-methyl-2-(trifluoromethyl)biphenyl-4-yl]-1,2,4-oxadiazol-3-yl}benzyl)-N-methylglycine]: on S1P1 [1] (96 well-plate, read-out: S1P1 binding Ki (M) (96 well-plate)), the Ki is 6.81e-10 M. The inhibition constant (Ki) on S1P1 [1] (384 well-plate, read-out: S1P1 binding Ki (M) (384 well-plate)) came out at 2.19e-09 M. The Ki on S1P3 (96 well-plate, read-out: S1P3 binding Ki (M) (96 well-plate)) came out at 4.43e-07 M. Moreover, on S1P3 (384 well-plate, read-out: S1P3 binding Ki (M) (384 well-plate)), the Ki was 4.11e-07 M. Further, a half-maximal response at S1P1 [2] (EC50) required 13 nM. Moreover, the “% of lymphopenia in mouse at 48 h” value in the data set on lymphocytes is given as 72 +/− 8%. The “Lymphe node/plasma ratio: 24 h” value in data set [3] (24 h) is listed as 4.4. For the same compound, the “Lymphe node/plasma ratio: 48 h” value in data set [3] (48 h) amounted to 4.0. Moreover, in data set [3] (female, C57BL/6, brain, oral, 30 mg/kg, ratio of AUCZ, read-out: Brain/plasma ratio: AUCZ (h * ng/ml)), the Kp was 2.4. In data set [3] (setting [4]), the AUC(0-inf) turned out to be 104 µg·h/mL, the CL/F is 5 mL/min/kg, the Cmax came to 8780 ng/mL and the Tmax was 2 h. In data set [3] (setting [4]), this compound showed a half-life of 7.5 h.

As a reminder, the Ki is the dissociation constant of the complex between target and ligand, obtained from inhibition or displacement. What is called EC50 is the concentration at which the effect is half-maximal. Usually AUC(0-inf) stands for total exposure, with the tail of the curve extrapolated. Higher therefore signals high exposure. By CL/F is commonly meant the apparent clearance, not corrected for the fraction that reaches the circulation. In general, Cmax refers to the peak of the concentration-time curve. By Tmax is commonly meant the time from dosing to the highest level. Usually half-life stands for the time in which the quantity being followed falls by half.
